Measured values from patent US11371994B2, “Phosphorylated Akt-specific capture agents, compositions, and methods of using and making” (California Institute of Technology, priority 2013, dated 2022).
Entries after “also recorded” stand apart in the source; their conditions may differ. Square brackets hold non-standard residues; d marks the D form. Ends that are not written are not given here. * marks the point of attachment. S3 = D-Pra clicked to acylated azidolysine-PEG2-biotin, with 5-azido-pentanoic acid; 5FAM = O=C1OC2(c3ccc(O)cc3Oc3cc(O)ccc32)c2ccc(C(=O)*)cc21; 5‑azidopentanoyl = [N-]=[N+]=NCCCCC(=O)*; Lys(N3) = [N-]=[N+]=NCCCC[C@H](N)C(=O)O; Peg2 = PEG spacer (Fmoc-NH-(PEG)2-OH); dPra = C#CC[C@@H](N)C(=O)O; Ahx = NCCCCCC(=O)O

Tests used:
Akt2 = Akt2 (Homo sapiens, UniProt P31751); assay: Non-radioactive kinase assay, phosphorylation of GSK-3α/β fusion protein; assay type: biochemical; set-up: purchased Abcam; conditions: relative to DMSO control
Description: The non-radioactive kinase assay kit for Akt2 was purchased from Cell Signaling. Ligand solutions were made in DMSO. Kinase reactions were set up in 1× kinase buffer (25 mM trisHCl (pH 7.5), 10 mM MgCl2, 0.01% Triton-X, 1× Complete protease inhibitor (Roche), 1× Phosstop phosphatase inhibitor (Roche)), each 25 μL reaction mixture containing 400 ng Akt2, 400 ng GST-GSK-3α/β fusion protein, […] and 0.5 μL of peptide solutions in DMSO or DMSO only. Reactions were allowed to proceed for 30 minutes at 30° C. A reaction mixture was also prepared using a 1:2.5 dilution of anti pS473 antibody (Cell Signaling) in the kinase buffer instead of the peptide ligand or DMSO. The reactions were quenched by adding 12.5 μL of 2×SDS sample loading buffer and heating at 95° C. for five minutes. 10 μL from each sample was loaded on an any kD SDS gel (BioRad) and run for an hour at 110 volts. Following semidry transfer of the gel to a nitrocellulose membrane, the membrane was blocked in 5% nonfat milk/TBST for an hour at 4° C., and treated overnight at 4° C. with a 1:200 dilution of Phospho GSK-3α/β Ser (21/9) rabbit antibody (Cell Signaling) in 0.5% milk/TBST. Following washes, the membrane was treated with a 1:2000 dilution of mouse anti-rabbit-HRP antibody for an hour at 4° C. After four five minute washes with TBST, and one five minute wash with TBS, the membrane was treated with West Dura ECL substrate (Thermo Scientific) and imaged on film.

[1] = test system: SKOV3 ovarian cancer cells; assay: Western blots of treated SKOV3 cells (Akt signaling pathway); assay type: cell-based
Description: Western blots were performed according to standard protocols. Briefly, cells were lysed with cell lysis buffer (Cell Signaling Technology) containing protease and phosphatase inhibitors (Cell Signaling Technology). Cell lysates were quantified with a Bradford protein assay (Thermo Scientific) and prepared for gel electrophoresis in Laemmli sample buffer and reducing agent. 20 μg of cell lysate were added to precast polyacrylamide gels (Bio-Rad) and proteins were separated by electrophoresis followed by transfer to PVDF membrane. Membranes were then blocked and probed with primary antibodies followed by horseradish peroxidase-conjugated secondary antibodies. The following antibodies were used according to manufacturer protocol: p-GSK3β (Cell Signaling, 9323), GSK3 β (Cell Signaling, 12456), AKT (Cell Signaling, 4691), p-AKT (S473) (Cell Signaling, 4060), Actin (Cell Signaling, 8456), HRP-linked Anti-rabbit IgG (Cell Signaling, 7074). The bands were visualized by chemiluminescence (Thermo Scientific).

OVCAR3 cells = assay: XTT cell viability assay; assay type: cell-based; conditions: 50 μM
Description: (§1) The XTT assay kit was purchased from Cell Signaling Technology (#9095) and used according to manufacturer protocol. Briefly, 1×10^4 cells were seeded in a 96-well plate. The following day, cells were serum starved and treated with capture agent. Following treatment, the XTT tetrazolium salt was added to the media and after 1 hour the absorbance at 450 nm was measured in a 96-well plate reader.

SKOV3 cells = assay: XTT cell viability assay; assay type: cell-based; conditions: 50 μM
Description: as §1

Sequence of Akt2 (P31751 whole entry, the tested form may be a part): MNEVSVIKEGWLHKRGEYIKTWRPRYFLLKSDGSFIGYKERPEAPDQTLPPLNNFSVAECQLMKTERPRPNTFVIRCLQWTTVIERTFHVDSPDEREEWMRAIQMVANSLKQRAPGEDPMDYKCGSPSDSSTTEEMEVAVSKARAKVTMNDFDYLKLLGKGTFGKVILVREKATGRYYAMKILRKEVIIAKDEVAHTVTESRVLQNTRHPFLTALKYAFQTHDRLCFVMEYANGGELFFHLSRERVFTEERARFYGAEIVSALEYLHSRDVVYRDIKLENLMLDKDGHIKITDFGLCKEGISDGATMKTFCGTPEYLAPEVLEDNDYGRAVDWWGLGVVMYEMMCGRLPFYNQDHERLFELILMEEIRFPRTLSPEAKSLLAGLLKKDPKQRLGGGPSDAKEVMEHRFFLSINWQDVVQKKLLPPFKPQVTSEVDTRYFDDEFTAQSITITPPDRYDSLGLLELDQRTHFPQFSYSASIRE

Substance	influence on Akt2 kinase activity (p-GSK-3α/β level) (Akt2)	p-Akt level ([1]; 50 μM, time course)	p-GSK-3β level ([1]; 50 μM, time course)	cell viability (XTT) (OVCAR3 cells)	cell viability (XTT) (SKOV3 cells)	phospho-GSK-3β level after pretreatment and EGF stimulation ([1]; 50 μM, 1, 6 and 12 hours pretreatment, then EGF 10 minutes)	phospho-GSK-3β level after pretreatment and EGF stimulation ([1]; 50 μM, 24 hours pretreatment, then EGF)
tri_a: Akt-activating N-terminal triligand, conjugated to HIV TAT peptide via PEG spacers for cell assays (FIG. 28, 33A) (peptide 1 WKVKL; peptide 2 HNGYF; peptide 3 XYYRFG; peptide 4 GRKKRRQRRRPPQQ; not fully specified; D-residues; non-natural residues)	activate	initially increases and then steadily decreases over time	highest level of GSK3B phosphorylation is seen after 1 hour treatment; also recorded: clear increase in the p-GSK-3β level relative to the untreated and EGF-stimulated cells	significant increase in viability after 1 day treatment followed by a decline; also recorded: sharp increase after 24 hours is followed by a steady decrease before finally stabilizing	significant increase in viability after 1 day treatment followed by a decline; also recorded: initial spike in cell viability after 24 hours, followed by a linear decrease with time	–	–
tri_i: Akt-inhibiting C-terminal triligand, TAT-modified, with fluorescein label (FIG. 31, 35a) (peptide 1 Ac-[Lys(N3)][dH][dD]GG[dF]; peptide 2 S3-[dW][dK][dV][dK]; peptide 3 {5FAM-Ahx-Cys-Peg2}-[dH][dN]G[dY][dF][dPra]; peptide 4 {5‑azidopentanoyl-Peg2}-GRKKRRQRRRPPQQ-NH2; not fully specified (C-terminus); also: arms joined by triazoles, fluorescein label (Peg2-Cys-Ahx-5-carboxyfluorescein) coupled via DBCO-maleimide to TAT)	inhibit	–	–	significant decrease in viability after 1 day treatment; also recorded: initial drop in cell viability after 24 hours, followed by an increase before finally decreasing again	significant decrease in viability after 1 day treatment; also recorded: initial drop in cell viability and remain consistently lower than untreated cells for 5 days	less phospho-GSK-3β than EGF stimulation alone; also recorded: less phospho-GSK3-β than untreated cells stimulated with EGF alone	dramatic increase in levels of phospho-GSK3-β
